One data set deals with serum RBP4. Kind of data set: Serum RBP4 measurement (ELISA) in mice after oral dosing. Type of data set: in vivo, mouse. Here is the method: The Abca4−/− mouse model manifests accelerated accumulation of lipofuscin in the RPE and is considered a pre-clinical efficacy model for a drug reducing lipofuscin accumulation.
(§1) Ten week-old Abca4 null mutant mice (129/SV×C57BL/6J) bred as previously described were used in the study. Abca4−/− (knockout) and Abca4+/+(wild-type) mice were raised under 12 h on-off cyclic lighting with an in-cage illuminance of 30-50 lux. For long-term oral dosing A1120 was formulated into Purina 5035 rodent chow at Research Diets, Inc. (New Brunswick, N.J.) to ensure consistent 30 mg/kg daily oral dosing. Animals were administered the A1120-containing chow for 6 weeks.
Blood samples were collected from a tail vein at days 0, 21 and 42 of the A1120 dosing. Whole blood was drawn into a centrifuge tube and was let clot at room temperature for 30 min followed by centrifugation at 2,000×g for 15 minutes at +4° C. to collect serum. Serum RBP4 was measured using the RBP4 (mouse/rat) dual ELISA kit (Enzo Life Sciences) following the manufacturer's instructions.
Blood samples collected from the treatment and control groups at baseline, Day 21 and Day 42 were used to measure serum RBP4 in order to correlate RBP4 levels with reduction in formation of lipofuscin bisretinoids. […] Levels of lipofuscin fluorophores (A2E, A2-DHP-PE and all-trans-retinal dimer-PE) were determined at the end of the 42-day treatment period using quantitative HPLC.
Background: An ELISA detects its analyte on a solid surface through an enzyme-linked reagent.

Data set [1] is described as follows: Observation of toxicity signs during 6 week chronic dosing. Format: in vivo. The following applies: 6 week-long chronic dosing, 30 mg/kg daily oral. The protocol:
as §1
To determine whether A1120 has an effect on retinal production of lipofuscin fluorophores we administered the compound at the daily 30 mg/kg dose to Abca4−/− mice for a period of 6 weeks. Blood samples collected from the treatment and control groups at baseline, Day 21 and Day 42 were used to measure serum RBP4 in order to correlate RBP4 levels with reduction in formation of lipofuscin bisretinoids. […] Levels of lipofuscin fluorophores (A2E, A2-DHP-PE and all-trans-retinal dimer-PE) were determined at the end of the 42-day treatment period using quantitative HPLC.
Administration of A1120 reduces the production of A2E, A2-DHP-PE, and atRAL di-PE in A1120-treated Abca4−/− mice in comparison to the vehicle-treated Abca4−/− animals by approximately 50%.

A further data set has as its target RBP4-TTR interaction (Homo sapiens, UniProt P02753). Kind of data set: TR-FRET (HTRF) assay for antagonists of retinol-induced RBP4-TTR interaction, agonist and antagonist mode (Example 2). Format: biochemical. On the set-up: made in house; host or cells: E. coli. The conditions noted are these: agonist mode, dose titration. The text has this:
TR-FRET (Time-Resolved Fluorescence Resonance Energy Transfer) is an assay format that can be used in characterization of compounds affecting protein-protein interactions (31-33). […] In the presence of retinol, RBP4-TTR interaction induces FRET that can be registered as increased ratio of […] fluorescence signals. Binding of a desired RBP4 antagonist displaces retinol and induces hindrance for RBP4-TTR interaction resulting in the decreased FRET signal (FIG. 7).
The assay was developed using E. coli-expressed MBP-tagged RBP4 and commercially available TTR labeled directly with Eu3+ cryptate. In addition to MBP-RBP4 and Eu3+ (K)-TTR, a detector reagent anti-MBP-d2 was present in the mix. The assay was first optimized in the agonist mode; sensitivity and dynamic range of the assay was […] in respect to RBP4, TTR and detection reagent concentrations.
On the technique in general: TR-FRET usually uses a lanthanide donor and a delayed reading to cut background.

[2] abbreviates: Abca4−/− mice, 30 mg/kg daily oral in chow.

Turning to `O=C(O)c1ccccc1NC(=O)N1CCC(c2ccccc2C(F)(F)F)CC1` [Compound 1, 2(4-(2-(trifluoromethyl)phenyl)piperidine-1-carboxamido)benzoic acid], in the data set on serum RBP4 (setting [2]), the “Serum RBP4 reduction at Week 3 / Day 21 compared with Day 0” value was determined as 64% and the “Serum RBP4 reduction at Week 6 / Day 42 compared with Day 0” value was determined as 75%. Further, the “Effect on serum RBP4 levels (in words)” value in the data set on serum RBP4 (mouse, in vivo) is “reduce serum REBP4 levels”. Also, the “Reduction in the serum RBP4 level” value in the data set with serum RBP4 (orally dosed for 3 weeks at 30 mg/kg, treated animals (Example 3)) is listed as roughly 70%. In addition, the “Signs of compound toxicity such as weight loss or reduction in food consumption” value in data set [1] is reported as “did not note any obvious signs of compound toxicity”. Further, the “Induction of RBP4-TTR interaction” value on RBP4-TTR interaction was “did not induce RBP4-TTR interaction”.

(Values after patent US9333202B2, “Non-retinoid antagonists for treatment of age-related macular degeneration and stargardt disease” (THE TRUSTEES OF COLUMBIA UNIVERSITY IN THE CITY OF NEW YORK, priority 2012, dated 2016).)
